pEC50: −log10 of the molar value. Like-named read-outs stand apart in the source and are kept apart here.
Columns and labels:
[1] = tested on: UNC-17 (VAChT), unc-17 mutant strains; type: in vivo, Caenorhabditis elegans; conditions: p=0.001
[2] = tested on: wild type fourth-stage C. elegans larvae (L4s); test: Locomotory defects (coiled and/or paralysis) in wild type fourth-stage C. elegans larvae on solid substrate; type: in vivo, Caenorhabditis elegans; conditions: for Activity (%): percent of animals that show coiled and/or paralysis: 60 μM, after 60 min on solid substrate, L4 C. elegans
Experimental: A preliminary first round of SAR analyses using analogs of exemplary compound Ia was performed and the analogs' ability to induce locomotory defects in wild type fourth-stage C. elegans larvae (L4s) was tested.
If phenotype is observed, a dose-response analysis is performed.

[3] = tested on: wild type C. elegans; test: Manual monitoring of locomotion phenotype of wild type C. elegans on solid agar containing the small molecule; type: in vivo, Caenorhabditis elegans; conditions: for locomotory phenotype induced: solid agar substrate
Text: The ability of the 64 Egl hits to modulate the normal sinusoidal locomotion of wild type C. elegans was then examined. The animal's behaviour over the course of several hours was manually monitored while the animal moved atop a solid agar substrate containing the small molecule. Many different genes govern the sinusoidal locomotion of wild type C. elegans, but their mutation can lead to qualitatively distinct locomotory phenotypes.

[4] = tested on: L3 animals; test: Abnormal locomotory behaviour of L3 animals on solid agar (extended SAR); type: in vivo, Caenorhabditis elegans; conditions: for pest or weed control at 3.75 µM / pest or weed control at 15 µM / pest or weed control at 60 µM: Caenorhabditis elegans; for % any phene 1 h (conc.) 3.75 / % any phene 6 h (conc.) 3.75 / % any phene 24 h (conc.) 3.75: 3.75 uM; for % any phene 1 h (conc.) 3.75 / % any phene 1 h (conc.) 15 / % any phene 1 h (conc.) 60: 1 h exposure; for % any phene 1 h (conc.) 3.75 / % any phene 6 h (conc.) 3.75 / % any phene 24 h (conc.) 3.75 / % any phene 1 h (conc.) 15 / % any phene 6 h (conc.) 15 / % any phene 24 h (conc.) 15 / % any phene 1 h (conc.) 60 / % any phene 6 h (conc.) 60 / % any phene 24 h (conc.) 60: L3, mean of 4 replicates; for % any phene 6 h (conc.) 3.75 / % any phene 6 h (conc.) 15 / % any phene 6 h (conc.) 60: 6 h exposure; for % any phene 24 h (conc.) 3.75 / % any phene 24 h (conc.) 15 / % any phene 24 h (conc.) 60: 24 h exposure; for % any phene 1 h (conc.) 15 / % any phene 6 h (conc.) 15 / % any phene 24 h (conc.) 15: 15 uM; for % any phene 1 h (conc.) 60 / % any phene 6 h (conc.) 60 / % any phene 24 h (conc.) 60: 60 uM
Experimental: 20 animals were scored after either 1, 6 or 24 hours of exposure to drug (as indicated) per replicate. […] Data are reported as the mean % of animals with abnormal phenotype over 4 independent replicates.

[5] = tested on: C. elegans; test: Suppression of aldicarb-induced paralysis in C. elegans; type: in vivo; conditions: Caenorhabditis elegans
Experimental: Whether exemplary compound Ia can suppress the paralysis that is induced by aldicarb was tested. Aldicarb inhibits acetylcholinesterase, which normally catabolizes ACh at the synaptic cleft. […] Aldicarb treatment therefore results in excess ACh and paralyzes the animal due to excess muscle contraction. If exemplary compound Ia inhibits UNC-17 and results in lower levels of ACh at the synaptic cleft, then exemplary compound Ia should reduce aldicarb-induced paralysis.

[6] = tested on: fish; test: Dose-response analysis in fish, cardiac defects; type: in vivo
[7] = tested on: HEK293 cells; test: HEK293 cell proliferation, Celltiter Blue Cell Viability Assay; type: cell-based; conditions: dose-response, 48 hours, triplicates
Experimental: A cytotoxic formulation was used as positive control. Experiments were performed in triplicates on different days. […] Error bars indicate standard deviation.

[8] = tested on: C. elegans; test: Forward genetic screens for mutants resisting early larval lethal effects; type: in vivo, Caenorhabditis elegans; conditions: over 200,000 F1 and over 100,000 F2 animals screened
Experimental: Forward genetic screens were performed for mutants that can resist the early larval lethal effects of compound Ic and compound Id. Over 200,000 F1 animals and over 100,000 F2 animals from randomly mutagenized parents/grandparents were screened.

[9] = 1 h, read-out: % any phene 1 h (conc.) 3.75
[10] = 1 h, read-out: % any phene 1 h (conc.) 15
[11] = 1 h, read-out: % any phene 1 h (conc.) 60
[12] = 6 h, read-out: % any phene 6 h (conc.) 3.75
[13] = 6 h, read-out: % any phene 6 h (conc.) 15
[14] = 6 h, read-out: % any phene 6 h (conc.) 60
[15] = 24 h, read-out: % any phene 24 h (conc.) 3.75
[16] = 24 h, read-out: % any phene 24 h (conc.) 15
[17] = 24 h, read-out: % any phene 24 h (conc.) 60

| SMILES | Activity (%): percent of animals that show coiled and/or paralysis [2] | locomotory phenotype induced [3] | pest or weed control at 3.75 µM [4, 9] [%] | pest or weed control at 15 µM [4, 10] [%] | pest or weed control at 60 µM [4, 11] [%] | pest or weed control at 3.75 µM [4, 12] [%] | pest or weed control at 15 µM [4, 13] [%] | pest or weed control at 60 µM [4, 14] [%] | pest or weed control at 3.75 µM [4, 15] [%] | pest or weed control at 15 µM [4, 16] [%] | pest or weed control at 60 µM [4, 17] [%] | cardiac defects in fish [6] | % any phene 1 h (conc.) 3.75 [4] [%] | % any phene 6 h (conc.) 3.75 [4] [%] | % any phene 24 h (conc.) 3.75 [4] [%] | % any phene 1 h (conc.) 15 [4] [%] | % any phene 6 h (conc.) 15 [4] [%] | % any phene 24 h (conc.) 15 [4] [%] | % any phene 1 h (conc.) 60 [4] [%] | % any phene 6 h (conc.) 60 [4] [%] | also measured |
| --- | --- | --- | --- | --- | --- | --- | --- | --- | --- | --- | --- | --- | --- | --- | --- | --- | --- | --- | --- | --- | --- |
| O[C@@H]1CCCC[C@H]1N1CCC(c2ccccc2)CC1 (racemic) [Vesamicol, reference compound] | 6% +/− 0.1 | jerky-unc and coiling, but only at concentrations close to its limit of solubility | 0 | 0 | 11.7 | 0 | 0.8 | 1.7 | 0 | 0 | 0 |  |  |  |  |  |  |  |  |  | sensitivity of unc-17(md414) (C370Y) mutant [1]: partially resistant |
| O=[N+]([O-])c1ccc(N2CCN(CC3CCCCC3)CC2)cc1 [Compound Ia] | 90% +/− 5.4 |  | 42.5 | 91 | 100 | 22.5 | 64.2 | 100 | 0 | 34.2 | 80 | weakest cardiac defects |  |  |  |  |  |  |  |  | pEC50 [5]: 5.32; pEC50 ([2]; Caenorhabditis elegans, read-out: EC50 (coiled and/or paralysis, dose-response)): 4.89; potency for inducing locomotory defects in worms relative to vesamicol ([3]; compared with vesamicol): more than 30 times; effect on HEK293 cell proliferation [7]: no effect |
| O=[N+]([O-])c1ccc(N2CCN(CC3CC4C=CC3C4)CC2)cc1 (stereo not drawn) [Compound Id] | 0.00% | ‘jerky-unc’ phenotype |  |  |  |  |  |  |  |  |  |  | 19.2 | 5.8 | 0.0 | 65.5 | 36.7 | 45.0 | 95.8 | 100.0 | mutants resisting early larval lethal effects [8]: No mutants that could resist the lethal effects; % any phene 24 h (conc.) 60 [4]: 95.8% |
| O=[N+]([O-])c1ccc(N2CCN(CC3CC=CCC3)CC2)cc1 (stereo not drawn) [Ie] | 19% +/− 8.0 | ‘severe’ snake-like coiler phenotype and paralysis |  |  |  |  |  |  |  |  |  | strongest cardiac defects | 15.0 | 0.0 | 0.0 | 45.0 | 56.7 | 0.0 | 94.2 | 80.8 | % any phene 24 h (conc.) 60 [4]: 57.5% |

— US11517568B2, “Compounds and methods for treating nematode infections” (The Governing Council of The University of Toronto, priority 2018, dated 2022)
